In ChEMBL document CHEMBL1201862, “PubChem BioAssay data set” (2004):
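1) Cells in 96-well plates. 2) Compound, 48 h, 5 concentrations. 3) Linear interpolation between surrounding doses. 4) Unreached endpoint = highest concentration. Abbreviation: GI50, concentration required for 50% inhibition of growth.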 Active and inactive are the calls of the source. Cut-off read from the data, not from the text of the source: active = GI50 up to about 1.1 µM and inactive = higher.

Tests used:
Assay in all cases: growth of human tumour cells (NCI), 48 h
[1] = test system: MDA-N
[2] = test system: OVCAR-8
[3] = test system: IGROV-1
[4] = test system: UO-31
[5] = test system: SNB-19
[6] = test system: OVCAR-5
[7] = test system: SNB-75
[8] = test system: HOP-62
[9] = test system: M14
[10] = test system: SF-268
[11] = test system: T47D
[12] = test system: 786-0
[13] = test system: U-251
[14] = test system: NCI-H226
[15] = test system: SR
[16] = test system: HT-29
[17] = test system: CCRF-CEM
[18] = test system: UACC-257
[19] = test system: BT-549
[20] = test system: M19-MEL

Measured: GI50

O=NN(CCCl)C(=O)NC1CCC(=O)NC1=O (stereo not given)
inactive: [1] 224 µM | [2] 50 µM | [3] 365 µM | [4] 676 µM | [5] 112 µM | [6] 804 µM | [7] 60.5 µM | [8] 144 µM | [9] 356 µM | [10] 38.7 µM | [11] 384 µM | [12] 61.7 µM | [13] 52.8 µM | [14] 232 µM | [15] 25.4 µM | [16] 807 µM | [17] 75.5 µM | [18] 335 µM | [19] 251 µM | [20] 250 µM
